The results in this text go back to US12692221B2 (priority 2024, dated 2026).

For one series, the target named is T1, alpha1A (h) (Homo sapiens, UniProt P35348).
T1 construct: expressed in transfected cells; host or cells: CHO cells
T1 sequence (P35348 1-466): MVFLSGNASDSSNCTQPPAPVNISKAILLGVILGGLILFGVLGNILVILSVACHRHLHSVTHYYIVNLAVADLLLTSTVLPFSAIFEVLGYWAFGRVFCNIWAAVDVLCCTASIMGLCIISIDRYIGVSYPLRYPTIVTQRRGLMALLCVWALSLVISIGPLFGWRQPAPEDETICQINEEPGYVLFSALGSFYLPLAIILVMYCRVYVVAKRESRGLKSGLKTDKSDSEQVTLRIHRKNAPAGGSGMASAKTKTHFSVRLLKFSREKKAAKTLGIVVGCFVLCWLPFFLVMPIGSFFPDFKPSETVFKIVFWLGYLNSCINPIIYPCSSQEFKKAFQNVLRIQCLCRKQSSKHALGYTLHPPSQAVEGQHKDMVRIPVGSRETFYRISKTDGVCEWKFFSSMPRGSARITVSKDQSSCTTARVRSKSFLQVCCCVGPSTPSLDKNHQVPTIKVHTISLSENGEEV
Description: Radioligand binding alpha1A (h) (antagonist radioligand), [^3H]prazosin, CHO cells. On the procedure: (§1) Methods—Binding Assays: In vitro binding assays were performed using human recombinant receptors expressed in mammalian cell lines. Receptors were expressed in either HEK-293 or CHO cells depending on the target, and assay conditions (radioligand, concentration, nonspecific competitor, temperature, and incubation time) were optimized for each receptor. All assays were conducted in triplicate, and specific binding was quantified by scintillation counting as the detection method for each listed assay.
(§2) Specific binding was expressed as a percentage of control-specific binding, and percent inhibition was calculated using the formula in Ex. 8 above. Half-maximal inhibitory concentrations (IC50) were determined by non-linear regression analysis of the inhibition curves using the Hill equation (see Ex. 8). Inhibition constants (Ki) were calculated using the Cheng-Prusoff equation (see Ex. 8). KD values used in these calculations had been previously established for each receptor under the assay conditions (see Table 6). Data analysis was performed using software developed at Cerep and validated against SigmaPlot 4.0 for Windows.

For a further series, the target named is T2, CB2 (h) (Homo sapiens, UniProt P34972).
T2 construct: expressed in transfected cells; host or cells: CHO cells
Kind of series: Radioligand binding CB2 (h) (agonist radioligand), [^3H]WIN 55212-2, CHO cells. On the procedure: as §1, §2

A further series deals with T3, D2S (h) (Homo sapiens, UniProt P14416).
T3 construct: expressed in transfected cells; host or cells: HEK-293 cells
Description: Radioligand binding D2S (h) (agonist radioligand), [^3H]7-OH-DPAT, HEK-293 cells. On the procedure:
as §1, §2

The next series has as its system NMDA. Kind of series: Radioligand binding NMDA (antagonist radioligand), [^3H]CGP 39653, rat cerebral cortex.
The next series has as its target T4, H1 (h) (Homo sapiens, UniProt P35367).
T4 construct: expressed in transfected cells; host or cells: HEK-293 cells
Kind of series: Radioligand binding H1 (h) (antagonist radioligand), [^3H]pyrilamine, HEK-293 cells. On the procedure:
as §1, §2

The target of a further series is T5, M2 (h) (Homo sapiens, UniProt P08172).
T5 construct: expressed in transfected cells; host or cells: CHO cells
T5 sequence (P08172 1-466): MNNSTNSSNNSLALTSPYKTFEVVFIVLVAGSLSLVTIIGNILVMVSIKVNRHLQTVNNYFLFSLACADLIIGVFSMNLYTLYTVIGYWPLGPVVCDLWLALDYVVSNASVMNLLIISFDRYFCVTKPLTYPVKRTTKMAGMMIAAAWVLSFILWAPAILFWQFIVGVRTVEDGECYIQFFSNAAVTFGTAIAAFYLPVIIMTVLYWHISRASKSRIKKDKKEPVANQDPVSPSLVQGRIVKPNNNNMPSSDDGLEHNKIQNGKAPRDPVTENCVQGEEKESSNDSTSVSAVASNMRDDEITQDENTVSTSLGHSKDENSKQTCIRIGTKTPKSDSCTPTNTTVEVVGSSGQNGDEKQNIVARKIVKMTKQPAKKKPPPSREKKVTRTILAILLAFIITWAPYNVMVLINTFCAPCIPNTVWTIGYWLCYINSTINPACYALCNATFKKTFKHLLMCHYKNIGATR
Description: Radioligand binding M2 (h) (antagonist radioligand), [^3H]AF-DX 384, CHO cells. The protocol: as §1, §2

For a further series, the target named is T6, μ (MOP) (h) (Homo sapiens, UniProt P35372).
T6 construct: expressed in transfected cells; host or cells: HEK-293 cells
Kind of series: Radioligand binding μ (MOP) (h) (agonist radioligand), [^3H]DAMGO, HEK-293 cells. On the procedure:
as §1, §2

In the next series the test system is Na^+ channel (site 2). The conditions noted are these: Na+ channel (site 2) (antagonist radioligand); footnote: Sodium Channel Site2 (Non-selective) Rat Ion Channel Batrachotoxin Mass Spectr. Binding.
For another series, the target named is T7, 5-HT transporter (h) (Homo sapiens, UniProt P31645).
T7 construct: expressed in transfected cells; host or cells: CHO cells
Description: Radioligand binding 5-HT transporter (h) (antagonist radioligand), [^3H]imipramine, CHO cells. On the procedure: as §1, §2

Series [1] in a line: Aqueous solubility by sequential dilution in water, microscopic inspection. The conditions noted are these: for aqueous solubility relative to reference compound 2C-iBu: under the same conditions; for solubility: water, thermodynamic from solid.
The target of the next series is 5-HT2A (Homo sapiens, UniProt P28223). Description: Calcium flux agonist assay, 293T cells. To be noted: for Emax: HEK-293T, calcium flux, 5-HT2A, normalized to maximum 5-HT response. The series is classed as cell-based. The arrangement: expressed in transfected cells; host or cells: Human Embryonic Kidney (293T) cells, transient.
For a further series, the target named is 5-HT2B (Homo sapiens, UniProt P41595). Kind of series: Calcium flux agonist assay, 293T cells. The series is classed as cell-based. The arrangement: expressed in transfected cells; host or cells: Human Embryonic Kidney (293T) cells, transient. The conditions noted are these: for Emax: HEK-293T, normalized to maximum 5-HT response; for 5-HT2B receptor activation: in words. For orientation: Calcium assays in cells follow changes in intracellular calcium, usually with a dye or a luminescent sensor.

For another series, the system named is male C57BL/6J mice. Description: Motor activity / distance traveled measured in parallel with HTR. The format is in vivo, mouse. To be noted: i.p.; for motor activity, in words: magnetometer activity.

SMILES strings stand for the structures. In brackets after ≈: the same amount, converted by molar mass. Where only a bound is given, the exact number is not on record here.

T7 sequence (P31645 whole entry): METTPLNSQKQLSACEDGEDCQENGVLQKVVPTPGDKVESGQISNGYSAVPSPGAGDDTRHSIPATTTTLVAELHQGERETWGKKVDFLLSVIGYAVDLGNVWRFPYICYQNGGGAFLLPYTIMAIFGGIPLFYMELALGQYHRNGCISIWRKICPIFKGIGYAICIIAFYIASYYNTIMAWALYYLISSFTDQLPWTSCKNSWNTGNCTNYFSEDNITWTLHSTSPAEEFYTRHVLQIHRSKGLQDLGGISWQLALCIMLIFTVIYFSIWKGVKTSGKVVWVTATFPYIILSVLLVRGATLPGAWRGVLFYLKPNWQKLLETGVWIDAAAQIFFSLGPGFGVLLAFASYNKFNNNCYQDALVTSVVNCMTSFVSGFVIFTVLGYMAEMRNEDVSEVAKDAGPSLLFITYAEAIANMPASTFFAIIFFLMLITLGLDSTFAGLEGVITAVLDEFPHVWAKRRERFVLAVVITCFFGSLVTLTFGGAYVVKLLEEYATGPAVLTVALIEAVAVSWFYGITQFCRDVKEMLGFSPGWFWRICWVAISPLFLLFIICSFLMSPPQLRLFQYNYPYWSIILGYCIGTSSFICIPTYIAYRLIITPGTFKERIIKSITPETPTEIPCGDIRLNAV
T4 sequence (P35367 whole entry): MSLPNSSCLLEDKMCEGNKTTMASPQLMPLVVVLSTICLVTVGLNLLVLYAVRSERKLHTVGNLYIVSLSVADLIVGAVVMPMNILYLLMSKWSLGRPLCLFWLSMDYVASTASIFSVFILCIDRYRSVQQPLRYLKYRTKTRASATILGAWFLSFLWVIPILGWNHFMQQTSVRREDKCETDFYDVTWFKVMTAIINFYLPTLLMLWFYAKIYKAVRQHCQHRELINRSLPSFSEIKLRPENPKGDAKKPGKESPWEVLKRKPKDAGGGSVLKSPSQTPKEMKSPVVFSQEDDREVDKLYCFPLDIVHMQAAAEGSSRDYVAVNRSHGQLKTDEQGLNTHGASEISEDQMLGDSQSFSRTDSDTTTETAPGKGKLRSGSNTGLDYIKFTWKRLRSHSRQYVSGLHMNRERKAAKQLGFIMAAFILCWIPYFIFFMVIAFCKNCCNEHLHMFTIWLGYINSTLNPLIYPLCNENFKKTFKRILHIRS
Chain of 5-HT2B (P41595 whole entry): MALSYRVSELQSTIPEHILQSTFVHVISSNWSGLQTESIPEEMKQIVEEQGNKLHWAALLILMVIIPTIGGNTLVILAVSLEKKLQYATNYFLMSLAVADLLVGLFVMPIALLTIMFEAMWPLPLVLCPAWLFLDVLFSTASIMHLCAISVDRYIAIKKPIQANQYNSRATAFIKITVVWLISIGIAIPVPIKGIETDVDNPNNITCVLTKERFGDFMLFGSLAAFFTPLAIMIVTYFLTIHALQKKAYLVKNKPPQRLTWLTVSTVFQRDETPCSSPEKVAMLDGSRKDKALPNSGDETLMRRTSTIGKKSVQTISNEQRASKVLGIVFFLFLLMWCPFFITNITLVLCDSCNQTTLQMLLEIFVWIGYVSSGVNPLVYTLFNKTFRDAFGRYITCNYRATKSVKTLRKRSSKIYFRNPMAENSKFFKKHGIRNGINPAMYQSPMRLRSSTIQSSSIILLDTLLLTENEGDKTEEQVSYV
T6 sequence (P35372 whole entry): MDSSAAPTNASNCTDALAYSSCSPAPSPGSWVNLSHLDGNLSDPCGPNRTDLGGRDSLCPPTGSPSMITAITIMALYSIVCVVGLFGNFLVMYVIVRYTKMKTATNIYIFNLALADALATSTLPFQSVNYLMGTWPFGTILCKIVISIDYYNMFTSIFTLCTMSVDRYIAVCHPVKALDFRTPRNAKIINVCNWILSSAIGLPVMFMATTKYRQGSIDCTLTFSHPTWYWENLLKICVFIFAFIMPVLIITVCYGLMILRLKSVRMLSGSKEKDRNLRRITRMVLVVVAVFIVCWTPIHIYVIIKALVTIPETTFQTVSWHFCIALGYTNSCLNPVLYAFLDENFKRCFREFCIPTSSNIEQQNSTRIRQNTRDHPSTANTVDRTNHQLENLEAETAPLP
Chain of 5-HT2A (P28223 whole entry, looked up): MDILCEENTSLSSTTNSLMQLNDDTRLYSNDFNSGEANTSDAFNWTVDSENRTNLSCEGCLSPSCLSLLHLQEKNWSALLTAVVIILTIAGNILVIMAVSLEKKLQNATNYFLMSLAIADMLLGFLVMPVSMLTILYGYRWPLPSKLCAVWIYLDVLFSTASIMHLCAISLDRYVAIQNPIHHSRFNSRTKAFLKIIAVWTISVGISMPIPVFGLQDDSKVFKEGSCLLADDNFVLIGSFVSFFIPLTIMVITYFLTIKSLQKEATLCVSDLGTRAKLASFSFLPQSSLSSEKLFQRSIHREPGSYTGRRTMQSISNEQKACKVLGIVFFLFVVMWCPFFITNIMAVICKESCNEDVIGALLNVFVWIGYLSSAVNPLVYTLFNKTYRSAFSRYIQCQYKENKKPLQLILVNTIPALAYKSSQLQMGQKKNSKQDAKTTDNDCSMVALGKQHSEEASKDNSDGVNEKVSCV
T3 sequence (P14416 1-414 isoform P14416-2): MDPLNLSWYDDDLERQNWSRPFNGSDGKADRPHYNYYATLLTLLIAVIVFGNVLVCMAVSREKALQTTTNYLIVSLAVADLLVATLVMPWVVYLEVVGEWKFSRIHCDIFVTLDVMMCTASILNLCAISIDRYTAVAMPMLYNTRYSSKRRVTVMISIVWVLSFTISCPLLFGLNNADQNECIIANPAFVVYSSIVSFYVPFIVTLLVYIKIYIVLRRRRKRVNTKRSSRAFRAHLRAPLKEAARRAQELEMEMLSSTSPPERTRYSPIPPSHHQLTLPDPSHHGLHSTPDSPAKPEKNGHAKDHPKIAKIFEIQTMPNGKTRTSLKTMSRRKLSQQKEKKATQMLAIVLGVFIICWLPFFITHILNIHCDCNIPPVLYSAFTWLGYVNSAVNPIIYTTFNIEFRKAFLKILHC
T2 sequence (P34972 whole entry): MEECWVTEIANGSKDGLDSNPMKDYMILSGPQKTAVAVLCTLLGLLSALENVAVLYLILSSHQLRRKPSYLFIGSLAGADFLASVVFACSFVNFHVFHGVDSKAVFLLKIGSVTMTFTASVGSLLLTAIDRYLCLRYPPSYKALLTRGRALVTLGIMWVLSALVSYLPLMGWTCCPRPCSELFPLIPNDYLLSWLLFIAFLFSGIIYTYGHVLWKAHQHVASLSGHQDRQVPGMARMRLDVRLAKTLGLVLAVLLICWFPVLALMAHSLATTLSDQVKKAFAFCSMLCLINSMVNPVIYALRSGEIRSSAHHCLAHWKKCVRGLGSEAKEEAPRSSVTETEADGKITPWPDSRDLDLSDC

Take `COCc1cc(CCN)c(O)cc1CC(C)C` [2CiBu-2OH-5MM, 2-(2-aminoethyl)-5-isobutyl-4-(methoxymethyl)phenol]: the “Mean Percent Inhibition of Control Specific Binding” value (“Mean Percent Inhibition” for short) at alpha1A (h) was 51.6%; on CB2 (h), −6.0%; at D2S (h) it was 46.6%; in the series with NMDA it was −24.3%; at H1 (h), 5.7%; at M2 (h), 14.9%. The entries for the “Mean Percent Inhibition” value at μ (MOP) (h), in the series on Na^+ channel (site 2) and at 5-HT transporter (h) were 24.4%, 66% and 15.0%, respectively. Besides, in [1], the “aqueous solubility relative to reference compound 2C-iBu” value was “significantly higher aqueous solubility”. The solubility in [1] came out at 110 mM (≈ 26.2 mg/mL). In addition, the concentration giving a half-maximal response (EC50) at 5-HT2A was found to be 55.9 nM. The Emax at 5-HT2A was 115%; on 5-HT2B (calcium flux, 5-HT2B), 2.64%. In addition, the “Potency (EC50)” value on 5-HT2B (calcium flux, 5-HT2B) is reported as “Unstable”. For the same compound, on 5-HT2B (calcium flux), the 5-HT2B receptor activation result was “unexpectedly reduced 5-HT2B receptor activation”.

Take `COCCc1cc(CCN)c(OC)cc1Br` [Compound 2CB-5ME, reference compound]: the “Mean Percent Inhibition” value is recorded as 33.6% at alpha1A (h); −22.8% at CB2 (h); 83.0% at D2S (h); 3.5% in the series with NMDA; 7.3% on H1 (h); 21.5% at M2 (h). Also, the “Mean Percent Inhibition” value worked out at 28.6% at μ (MOP) (h), 46.9% in the series with Na^+ channel (site 2) and 8.6% on 5-HT transporter (h). Moreover, in the series with male C57BL/6J mice, the “motor activity, in words” value was “motor suppression reaching statistical significance at 30 mpk”.

Consider `COCc1cc(CCN)c(OC)cc1Br` [Compound 2CB-5MM, 2-(4-bromo-2-methoxy-5-(methoxymethyl)phenyl)ethan-1-amine], for which the “Mean Percent Inhibition” value on alpha1A (h) is 29.4%; on CB2 (h) it was −14.9%; at D2S (h) it was 89.4%; with NMDA it was 4.7%; on H1 (h), 7.3%; at M2 (h) it was 10.0%. In addition, the figures for the “Mean Percent Inhibition” value at μ (MOP) (h), in the series with Na^+ channel (site 2) and at 5-HT transporter (h) were 31.1%, 21.6% and −1.3%, respectively. Moreover, the “Distance traveled (locomotor activity), in words” value with male C57BL/6J mice (0.03-30 mpk, over 30 minutes) is “remained consistent across doses”. Moreover, in series [1], the concentration in solution (solubility) came to 43.5 mM (≈ 11.9 mg/mL). Besides, the EC50 at 5-HT2A stood at 0.68 nM; on 5-HT2B, 23.4 nM. Further, the Emax at 5-HT2A was determined as 114%; at 5-HT2B (calcium flux, 5-HT2B), 94%.

On to `COCc1cc(CCN)c(OC)cc1CC(C)C` [Compound 2CiBu-5MM, 2-[4-isobutyl-2-methoxy-5-(methoxymethyl)phenyl]ethanamine], for which the “Mean Percent Inhibition” value is given as 7.6% on alpha1A (h); 17.8% at CB2 (h); 12.9% at D2S (h); 12.0% with NMDA; 0.6% at H1 (h); 16.0% on M2 (h). Moreover, the “Mean Percent Inhibition” value on μ (MOP) (h) is 31.5%; in the series with Na^+ channel (site 2), 70.4%; on 5-HT transporter (h) it was 4.9%. In the series on male C57BL/6J mice, the “motor activity ID50” value is recorded as above 3 mpk. Also, the “motor activity, in words” value in the series on male C57BL/6J mice was “statistically significant suppression of motor activity at the two highest doses tested of 10 and 30 mpk”. In addition, the “aqueous solubility relative to reference compound 2C-iBu” value is on record as “significantly higher aqueous solubility” in series [1] and “over ten times more soluble” in [1] (listed as Compound 8). In addition, in series [1], the solubility was 365 mM (≈ 91.7 mg/mL). Moreover, the EC50 at 5-HT2A worked out at 42.2 nM; at 5-HT2B, 497 nM. Moreover, the Emax on 5-HT2A was determined as 111%; at 5-HT2B (calcium flux, 5-HT2B), 45.7%. Besides, on 5-HT2B (calcium flux), the 5-HT2B receptor activation entry is listed as “unexpectedly reduced 5-HT2B receptor activation”.

As a reminder, the solubility is how much of the substance goes into solution per volume. A low value points to a poorly soluble substance. What is called EC50 is the concentration giving half of the maximal effect. One may read the Emax as the maximal effect, on the per cent scale that the assay sets.
